The results in this text go back to patent US8952024B2, “Herbicidal pyrimidone derivatives” (E I du Pont de Nemours and Company, priority 2009, dated 2015).

One assay deals with galium (catchweed bedstraw, Galium aparine). Nature of the assay: Test B pre-/postemergence plant response. As to conditions: 250 g ai/ha, Preemergence, 0 to 100 scale. The class given is in vivo. In a few lines: (§1)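 Greenhouse herbicide screen. Pre- and postemergence (1- to 4-leaf) spray of compound in solvent/surfactant mixture; loam–sand soil for pre, peat/vermiculite medium for post. Visual control rating 0–100 at 13 to 15 days after treatment.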
As to `Cn1c(-c2ccccc2)ncc(C(=O)C2=C(O)CCCC2=O)c1=O` [Compound 55], the “Plant response rating, Galium” value was determined as 85.

Regarding `O=C1CCCC(O)=C1C(=O)c1cnc(-c2ccsc2)n(-c2ccccc2)c1=O` [Compound 56], the “Plant response rating, Galium” value is given as 85.

As for `CCCCc1ncc(C(=O)C2=C(O)CCCC2=O)c(=O)n1-c1cccc(C)c1` [Compound 63], the “Plant response rating, Galium” value came out at 20.

`O=C1CCCC(O)=C1C(=O)c1cnc(-c2cccc(Cl)c2)n(-c2ccc(Cl)cc2)c1=O` [Compound 64]: the “Plant response rating, Galium” value turned out to be 70.

Turning to `CCCCc1ncc(C(=O)C2=C(O)CCCC2=O)c(=O)n1-c1ccc(C)cc1` [Compound 67], the “Plant response rating, Galium” value was 90.

The assay is the same for the next values; noted with them: Preemergence, 31 g ai/ha; scale 0 to 100 (0 no effect, 100 complete control).
For the molecule `Cn1c(-c2ccccc2)ncc(C(=O)C2=C(O)CCCC2=O)c1=O` [Compound 55], the “Plant response rating, Galium” value was found to be 0.

Regarding `O=C1CCCC(O)=C1C(=O)c1cnc(-c2ccsc2)n(-c2ccccc2)c1=O` [Compound 56], the “Plant response rating, Galium” value turned out to be 0.

For the molecule `CCCCc1ncc(C(=O)C2=C(O)CCCC2=O)c(=O)n1-c1cccc(C)c1` [Compound 63], the “Plant response rating, Galium” value is 0.

Consider `O=C1CCCC(O)=C1C(=O)c1cnc(-c2cccc(Cl)c2)n(-c2ccc(Cl)cc2)c1=O` [Compound 64], for which the “Plant response rating, Galium” value is listed as 0.

With `CCCCc1ncc(C(=O)C2=C(O)CCCC2=O)c(=O)n1-c1ccc(C)cc1` [Compound 67], the “Plant response rating, Galium” value was determined as 0.

The same assay, now with this note: Preemergence, 62 g ai/ha; scale 0 to 100 (0 no effect, 100 complete control).
In the case of `Cn1c(-c2ccccc2)ncc(C(=O)C2=C(O)CCCC2=O)c1=O` [Compound 55], the “Plant response rating, Galium” value was determined as 0.

For `O=C1CCCC(O)=C1C(=O)c1cnc(-c2ccsc2)n(-c2ccccc2)c1=O` [Compound 56], the “Plant response rating, Galium” value stood at 0.

With `CCCCc1ncc(C(=O)C2=C(O)CCCC2=O)c(=O)n1-c1cccc(C)c1` [Compound 63], the “Plant response rating, Galium” value was determined as 0.

Turning to `O=C1CCCC(O)=C1C(=O)c1cnc(-c2cccc(Cl)c2)n(-c2ccc(Cl)cc2)c1=O` [Compound 64], the “Plant response rating, Galium” value stood at 0.

Take `CCCCc1ncc(C(=O)C2=C(O)CCCC2=O)c(=O)n1-c1ccc(C)cc1` [Compound 67]: the “Plant response rating, Galium” value amounted to 35.

Staying with this assay, now noted: Preemergence, 125 g ai/ha; scale 0 to 100, 0 no effect, 100 complete control.
`Cn1c(-c2ccccc2)ncc(C(=O)C2=C(O)CCCC2=O)c1=O` [Compound 55]: the “Plant response rating, Galium” value stood at 20.

With `O=C1CCCC(O)=C1C(=O)c1cnc(-c2ccsc2)n(-c2ccccc2)c1=O` [Compound 56], the “Plant response rating, Galium” value amounted to 60.

Turning to `CCCCc1ncc(C(=O)C2=C(O)CCCC2=O)c(=O)n1-c1cccc(C)c1` [Compound 63], the “Plant response rating, Galium” value came out at 0.

As for `O=C1CCCC(O)=C1C(=O)c1cnc(-c2cccc(Cl)c2)n(-c2ccc(Cl)cc2)c1=O` [Compound 64], the “Plant response rating, Galium” value worked out at 30.

Take `CCCCc1ncc(C(=O)C2=C(O)CCCC2=O)c(=O)n1-c1ccc(C)cc1` [Compound 67]: the “Plant response rating, Galium” value is given as 85.

For the next assay, the system named is nightshade (eastern black nightshade, Solanum ptycanthum). Nature of the assay: Test B pre-/postemergence plant response. The class given is in vivo. The settings on record: Preemergence, 31 g ai/ha; scale 0 to 100 (0 no effect, 100 complete control). In a few lines:
as §1
In the case of `Cn1c(-c2ccccc2)ncc(C(=O)C2=C(O)CCCC2=O)c1=O` [Compound 55], the “Plant response rating, Nightshade” value is 60.

As for `O=C1CCCC(O)=C1C(=O)c1cnc(-c2ccsc2)n(-c2ccccc2)c1=O` [Compound 56], the “Plant response rating, Nightshade” value was 85.

For `CCCCc1ncc(C(=O)C2=C(O)CCCC2=O)c(=O)n1-c1cccc(C)c1` [Compound 63], the “Plant response rating, Nightshade” value is 80.

Regarding `O=C1CCCC(O)=C1C(=O)c1cnc(-c2cccc(Cl)c2)n(-c2ccc(Cl)cc2)c1=O` [Compound 64], the “Plant response rating, Nightshade” value is 55.

As to `CCCCc1ncc(C(=O)C2=C(O)CCCC2=O)c(=O)n1-c1ccc(C)cc1` [Compound 67], the “Plant response rating, Nightshade” value was 70.

The assay is the same for the next values; noted with them: Preemergence, 62 g ai/ha; scale 0 to 100 (0 no effect, 100 complete control).
Consider `Cn1c(-c2ccccc2)ncc(C(=O)C2=C(O)CCCC2=O)c1=O` [Compound 55], for which the “Plant response rating, Nightshade” value stood at 98.

As for `O=C1CCCC(O)=C1C(=O)c1cnc(-c2ccsc2)n(-c2ccccc2)c1=O` [Compound 56], the “Plant response rating, Nightshade” value is 98.

Regarding `CCCCc1ncc(C(=O)C2=C(O)CCCC2=O)c(=O)n1-c1cccc(C)c1` [Compound 63], the “Plant response rating, Nightshade” value came out at 95.

Take `O=C1CCCC(O)=C1C(=O)c1cnc(-c2cccc(Cl)c2)n(-c2ccc(Cl)cc2)c1=O` [Compound 64]: the “Plant response rating, Nightshade” value is given as 85.

Take `CCCCc1ncc(C(=O)C2=C(O)CCCC2=O)c(=O)n1-c1ccc(C)cc1` [Compound 67]: the “Plant response rating, Nightshade” value was 95.

The same assay, now with this note: Preemergence, 125 g ai/ha; scale 0 to 100, 0 no effect, 100 complete control.
With `Cn1c(-c2ccccc2)ncc(C(=O)C2=C(O)CCCC2=O)c1=O` [Compound 55], the “Plant response rating, Nightshade” value is 100.

Consider `O=C1CCCC(O)=C1C(=O)c1cnc(-c2ccsc2)n(-c2ccccc2)c1=O` [Compound 56], for which the “Plant response rating, Nightshade” value came out at 98.

In the case of `CCCCc1ncc(C(=O)C2=C(O)CCCC2=O)c(=O)n1-c1cccc(C)c1` [Compound 63], the “Plant response rating, Nightshade” value was determined as 98.

Turning to `O=C1CCCC(O)=C1C(=O)c1cnc(-c2cccc(Cl)c2)n(-c2ccc(Cl)cc2)c1=O` [Compound 64], the “Plant response rating, Nightshade” value is recorded as 95.

As to `CCCCc1ncc(C(=O)C2=C(O)CCCC2=O)c(=O)n1-c1ccc(C)cc1` [Compound 67], the “Plant response rating, Nightshade” value amounted to 95.

A further assay deals with sunflower (common oilseed sunflower, Helianthus annuus). Kind of assay: Test B pre-/postemergence plant response. The class given is in vivo. As to conditions: Preemergence, 31 g ai/ha; scale 0 to 100 (0 no effect, 100 complete control). Put shortly:
as §1
On to `Cn1c(-c2ccccc2)ncc(C(=O)C2=C(O)CCCC2=O)c1=O` [Compound 55], for which the “Plant response rating, Sunflower” value is on record as 10.

For the molecule `O=C1CCCC(O)=C1C(=O)c1cnc(-c2ccsc2)n(-c2ccccc2)c1=O` [Compound 56], the “Plant response rating, Sunflower” value is on record as 0.

For `CCCCc1ncc(C(=O)C2=C(O)CCCC2=O)c(=O)n1-c1cccc(C)c1` [Compound 63], the “Plant response rating, Sunflower” value is reported as 5.

For the molecule `O=C1CCCC(O)=C1C(=O)c1cnc(-c2cccc(Cl)c2)n(-c2ccc(Cl)cc2)c1=O` [Compound 64], the “Plant response rating, Sunflower” value is 0.

As to `CCCCc1ncc(C(=O)C2=C(O)CCCC2=O)c(=O)n1-c1ccc(C)cc1` [Compound 67], the “Plant response rating, Sunflower” value came out at 0.

Still in this assay, the particulars now being: Preemergence, 62 g ai/ha; scale 0 to 100 (0 no effect, 100 complete control).
`Cn1c(-c2ccccc2)ncc(C(=O)C2=C(O)CCCC2=O)c1=O` [Compound 55]: the “Plant response rating, Sunflower” value is recorded as 60.

Turning to `O=C1CCCC(O)=C1C(=O)c1cnc(-c2ccsc2)n(-c2ccccc2)c1=O` [Compound 56], the “Plant response rating, Sunflower” value amounted to 60.

For `CCCCc1ncc(C(=O)C2=C(O)CCCC2=O)c(=O)n1-c1cccc(C)c1` [Compound 63], the “Plant response rating, Sunflower” value was determined as 15.

Take `O=C1CCCC(O)=C1C(=O)c1cnc(-c2cccc(Cl)c2)n(-c2ccc(Cl)cc2)c1=O` [Compound 64]: the “Plant response rating, Sunflower” value was 0.

Consider `CCCCc1ncc(C(=O)C2=C(O)CCCC2=O)c(=O)n1-c1ccc(C)cc1` [Compound 67], for which the “Plant response rating, Sunflower” value stood at 20.

Still in this assay, the particulars now being: Preemergence, 125 g ai/ha; scale 0 to 100, 0 no effect, 100 complete control.
As to `Cn1c(-c2ccccc2)ncc(C(=O)C2=C(O)CCCC2=O)c1=O` [Compound 55], the “Plant response rating, Sunflower” value came out at 60.

`O=C1CCCC(O)=C1C(=O)c1cnc(-c2ccsc2)n(-c2ccccc2)c1=O` [Compound 56]: the “Plant response rating, Sunflower” value came to 65.

With `CCCCc1ncc(C(=O)C2=C(O)CCCC2=O)c(=O)n1-c1cccc(C)c1` [Compound 63], the “Plant response rating, Sunflower” value is recorded as 20.

As to `O=C1CCCC(O)=C1C(=O)c1cnc(-c2cccc(Cl)c2)n(-c2ccc(Cl)cc2)c1=O` [Compound 64], the “Plant response rating, Sunflower” value amounted to 0.

Consider `CCCCc1ncc(C(=O)C2=C(O)CCCC2=O)c(=O)n1-c1ccc(C)cc1` [Compound 67], for which the “Plant response rating, Sunflower” value worked out at 35.
